“Also recorded” adds a separate entry of the source.
Legend:
[1] = system: 27-month-old C57BL/6 mice; experiment: Activity monitoring wheel test (voluntary running wheel activity) in aged mice; type: in vivo, mouse; details: 27-month-old mice; 0.3 mg/dose PO once daily for 35 days
Method: (§1) In this study, aged mice were treated with BGE-117 daily for 35 days. Daily voluntary running wheel activity levels, as well as hemoglobin levels at Days 0 and 14, were measured. The effects of the BGE-117 compound were examined for the reversal of frailty in mice.
The animals were housed with access to voluntary running wheels that wirelessly transmit running data to a computer for analysis. The outcome of interest was the median number of daily wheel rotations generated by mice in each group (n=9 per group), and this is shown as the dots in FIG. 6 (one median number of rotations per day per group) and also as the numbers on the right. […]
The first day of the study (Study Day 1) started with Animal Acclimation, followed by the BGE-117 treatment start date on Study Day 33 (Phase Day 1). […] For the frailty portion of the study, mice were assessed using an activity monitoring wheel which was monitored passively with a computer monitoring system. […]
The activity monitoring wheel is a running disk that monitors rotations. […] Activity was monitored passively and wirelessly with a computer monitoring system. Running wheel activity levels were monitored daily. […]
The wheels were electronically monitored and the number of rotations of the wheel per minute was recorded continuously throughout the entire study.

aged C57BL/6 mice = experiment: Hemoglobin levels in aged mice (Hb assay kit ab234046); type: in vivo, mouse; details: for Hemoglobin concentration vs vehicle control (FIG. 4B): after 14 days of treatment; for Hemoglobin levels in aged mice, Mean: 27-month-old mice
Method: as §1
The BGE-117 compound for the TA-1 treatment group was formulated in 0.5% carboxymethylcellulose (CMC) and 0.5% Tween 80 and constituted at a concentration of 1 mg/ml. The test article for the Control group included 0.5% CMC and 0.5% Tween 80, acting as a vehicle control. Mice were treated with BGE-117 at a concentration of 1 mg/ml at a volume of 300 μl/mouse (0.3 ml/mouse), for 0.3 mg/dose (TA-1); control group mice (TA-2) were administered a vehicle control at a dose volume of 0.3 ml/mouse. Administration was oral, once per day.
Using a 4 mm lancet, approximately 150 microliters of whole blood was collected from the submental vein, utilizing the submandibular vein as back-up. Blood was collected using 500 microliter Serum Separator tubes and stored at room temperature for 45 minutes or until clotted. Blood was centrifuged at 4000 RPM for 10 minutes in at 4° C. If the serum was not analyzed immediately, the serum was apportioned into 0.5 ml aliquots, stored, and transported at −80° C.
The following procedure was performed for the hemoglobin assay: • 1. Mouse blood was collected in Li-heparin tubes. • 2. Blood was briefly vortexed and 2 μl of whole blood was transferred into a 96-well clear plate containing 18 μl of distilled water. • 3. 160 μl sample buffer was added to the 96-well clear plate from the Hemoglobin Assay Kit (ab234046). • 4. 20 μl 1N NaOH was added to blood samples to the diluted sample in each well. • 5. The standard curve was established with included hemoglobin standard (ab234046) as per the manufacturer's instruction. • 6. The reaction was incubated at room temperature for 8-15 minutes. Read absorbance at 575 nm in end point mode. • 7. Hb concentration was calculated as recommended by the assay kit.

[2] = system: 23-month-old and 27-month old C57BL/6 mice with anemia of inflammation; experiment: Hemoglobin in aged mice with anemia of inflammation (elevated TNFα and/or IL-6), BGE-117 study; type: in vivo, mouse; details: 10 mg/kg PO once daily
Method: The study included 23-month-old mice (n=39) (23-months old at the start of the experiment, and 24 months old at the end since the experiment lasted 35 days) and 27-month old mice (n=14) (27-months old at the start of the experiment, and 28 months old at the end since the experiment lasted 35 days) from strain C57BL/6 that were administered BGE-117 or vehicle once daily for a duration of […].
Once the 23 month old mice developed anemia of inflammation at 23-months (±2 weeks), mice were randomly divided into two groups: Anemia of inflammation vehicle-treated Control group 1 (“23-month Control Group” (CG1)) (n=18) and Anemia of inflammation BGE-117-treated group (“BGE-117 23-month Test Group” (BGE-117 TG1)) (n=21), while ensuring that the mean hemoglobin levels and inflammatory cytokine levels remained balanced among the groups.
Once the 27-month old mice developed anemia of inflammation at 27-months (±2 weeks), mice were randomly divided into two groups: Anemia of inflammation vehicle-treated Control group (“27-month Control Group” (CG2)) (n=8), Anemia of inflammation BGE-117-treated group (“BGE-117 27-month Test Group” (BGE-117 TG2)) (n=6), while ensuring that the mean hemoglobin levels remained balanced among the groups. The mice in the two “Anemia of inflammation” pre-treatment (baseline) groups had high (130% or higher of the median values) TNFα and/or IL-6 as indicated in FIGS. 11-12.
The 23-month old and 27-month old Test Groups BGE-117 TG1 and BGE-117 TG2 were administered 10 mg/kg of BGE-117 once daily for 5 weeks by oral gavage in 0.5% carboxymethylcellulose (CMC) and 0.5% Tween 80. The 23-month old and 27-month old Control Groups CG1 and CG2 were administered vehicle of 0.5% carboxymethylcellulose (CMC) and 0.5% Tween 80 by oral gavage on the same schedule.
Blood was collected from the submandibular vein at the start of the study immediately before drug administration, and after 14 days of drug administration. The blood samples was mixed with EDTA and analyzed using the Hemoglobin assay kit from Abcam (ab234046) with modification. The signal was read on Molecular Device SpectraMax 340PC-384. The inflammatory markers were measured by Luminex Mouse Magnetic Assay (5-PLEX, LXSAMSM-05 by R&D Systems) on Luminex 200. At day 35 post drug initiation the mice were anesthetized with isoflurane and blood samples were collected from abdominal vein.

[3] = system: patients over 65 years of age with UAA; experiment: Phase 2a, 12-week, randomized, double-blind, placebo-controlled study in Unexplained Anemia of Aging (UAA); type: in vivo, human; details: elderly UAA subjects; 4-24 mg once daily, 12 weeks
From the text: Study Title: A Phase 2a, 12-Week, Randomized, Double-Blind, Placebo-Controlled, Multi-Center Study to Evaluate Efficacy and Safety of BGE-117 in the Treatment of Unexplained Anemia of Aging (UAA)
This is a Phase II, randomized, double-blind, placebo-controlled multi-center study to compare the safety of BGE-117 when administered in patients over 65 years of age for 12 weeks. The study consists of 3 periods: Screening, Treatment, and Follow-up. FIG. 16 provides a summary of the study design.
The study size for this study is 160 evaluable subjects (80 subjects randomized to BGE-117 and 80 subjects randomized to placebo). The subject's maximum duration of participation is approximately 154 days. This includes 6 weeks for the Screening Period, 12 weeks for the Treatment Period, and 4 weeks for the Follow-up Period.
Subjects are advised to take IP with water once a day, recommended that the subject take the study medication 1 hour before their morning meal, starting on Visit 3 (Day 1), for 84 consecutive days, through Visit 15 (Day 85). Capsules are taken whole, not crushed, chewed, or cut.
This study is a double-blind, placebo-controlled study. Subjects are randomized to receive either of the following: • BGE-117: a hypoxia inducible factor-prolyl hydroxylase (HIF-PHD) inhibitor in 4 mg and 12 mg capsules; or • Placebo: matching capsule without active drug • The starting dose and maximum dose for BGE-117/placebo is based on a subject's screening renal function results: • The starting dose for subjects with an estimated glomerular filtration rate (eGFR) ≥60 mL/min/1.73 m2 is 12 mg/placebo. The maximum dose is 24 mg/placebo. • The starting dose for subjects with an eGFR between ≥30 and <60 mL/min/1.73 m^2is 4 mg/placebo. The maximum dose is 16 mg/placebo.
From Visits 5 through 11 (Days 15 through 57), dose adjustment opportunities are scheduled approximately every 14 days to achieve and maintain Hb within the target range. Dose adjustments are based on the local laboratory's results, with the goal of titrating Hb levels to a range of ≥12.0 to ≤13.0 g/dL. In the event of excessively rapid Hb increases or unacceptably high Hb levels or trends, in the investigator's opinion, the dose may be adjusted at any time, even on visits without a dose adjustment review.
• Improvement in Hb at Visit 15 (Day 85/EOTP) compared to baseline
• Improvement in FACIT-Fatigue Score at Visit 15 (Day 85/EOTP) compared to baseline
• Change in Hb at Visits 7, and 11 (Days 29, and 57) and Follow-up Visit compared to baseline • Improvement in FACIT-Fatigue score at Visits 7 and 11 (Day 29 and 57) and the Follow-up Visit compared to baseline • Change in SPPB Score at Visits 7, 11, and 15 (Day 29, 57, and 85), and Follow-up Visit compared to baseline • Change in 6MWT Distance at Visits 7, 11, and 15 (Days 29, 57, and 85) and the Follow-up Visit compared to baseline • Change in SF-36 at Visits 7, 11, and 15 (Days 29, 57, and 85) and the Follow-up Visit compared to baseline • Evaluate the starting dose of BGE-117 in the treatment of UAA for subjects with eGFR ≥60 mL/min/1.73 m^2 and subjects with eGFR ≥30 and <60 mL/min/1.73 m^2
Change in Hb is the primary endpoint and is a direct assessment of the disease of unexplained anemia in aging patients. Changes in FACIT-Fatigue is the key secondary endpoint. Analysis of both of these endpoints is an ANCOVA with baseline covariates. Testing for FACIT-Fatigue is done only after achieving statistical significance for the change in Hb.

[4] = system: HIF prolyl hydroxylase (PHD) 1/2/3; details: cited from earlier work
[5] = system: patients with chronic kidney disease and normal healthy human volunteers; details: patients with chronic kidney disease and normal healthy human volunteers (Shinfuku et al. 2018); cited from earlier work
5/6 nephrectomized rats = 5/6 nephrectomized rats (Kato et al. 2019); cited from earlier work

O=C(O)CNC(=O)C1=C(O)CCN(Cc2ccc(Oc3ccc(Cl)cc3)nc2)C1=O [BGE-117, N-[(1{[6-(4-chlorophenoxy)-3-pyridinyl]methyl}-4-hydroxy-2-oxo-1,2,5,6-tetrahydro-3-pyridinyl)carbonyl]glycine]
Voluntary running wheel activity (median daily wheel rotations) vs age-matched controls [1]: statistically significant (p<0.001) increase in voluntary activity; also recorded: significantly increased activity
Hemoglobin concentration vs vehicle control (FIG. 4B) (aged C57BL/6 mice; 23-month old mice): significant increase of hemoglobin levels
Hemoglobin concentration vs vehicle control (FIG. 4B) (aged C57BL/6 mice; 27-month old mice): significant increase of hemoglobin levels
Hemoglobin levels in aged mice, Mean (aged C57BL/6 mice; Week 0 (before treatment), BGE-117 group): 10.98 g/dL
Hemoglobin levels in aged mice, Mean (aged C57BL/6 mice; Week 2, 0.3 mg/dose PO once daily): 19 g/dL
Hb levels of Test Groups vs Control Groups administered vehicle alone ([2]; 23-month old and 27-month old Test Groups): significantly increased Hb levels
Hemoglobin levels before vs after treatment (FIG. 9B) ([2]; 23-month-old mice with elevated TNFα, after two weeks): significant increases in hemoglobin levels
Hemoglobin levels before vs after treatment (FIG. 10B) ([2]; 23 month old mice with elevated IL-6, after two weeks): Highly significant improvements in hemoglobin levels
Hemoglobin levels before vs after treatment (FIG. 12B) ([2]; 27-month old mice with elevated IL-6, after two weeks): Significant improvements in hemoglobin levels
Hemoglobin levels before vs after treatment (FIG. 11B) ([2]; 27-month-old mice with elevated TNFα, after two weeks): Significant improvements in hemoglobin levels
Activity levels and sleep quality compared to baseline [3]: Improve activity levels and sleep quality
Fatigue (FACIT-Fatigue Score) compared to baseline [3]: Reduce fatigue
Hemoglobin levels compared to baseline [3]: Increase hemoglobin levels
Oxygen delivery, mobility, QOL, and energy levels [3]: Improve oxygen delivery, mobility, QOL, and energy levels
Physical activity (SPPB scores, 6MWT, grip strength test) compared to baseline [3]: Improve physical activity
HIF prolyl hydroxylase inhibition, type [4]: competitive HIF prolyl hydroxylase (PHD) 1/2/3 pan-inhibitor
EPO production [5]: increase EPO production
Hemoglobin levels (5/6 nephrectomized rats): increase hemoglobin levels

Reference: patent publication US20210353612A1, “HYPOXIA-INDUCIBLE FACTOR PROLYL HYDROXYLASE INHIBITORS FOR TREATING AGING-RELATED CONDITIONS” (BioAge Labs, Inc., priority 2020, published 2021)
